# Experimental data from patent publication US5955440A, “Macrolide LHRH antagonists” (Abbott Laboratories, priority 1998, dated 1999).
# Structures can show the parent of a compound that is named as a salt.
# Target: T1, LHRH rat pituitary receptor (Rattus norvegicus, UniProt P30969)
# T1 construct: from tissue; host or cells: rat pituitary
# T1 sequence (P30969 1-327): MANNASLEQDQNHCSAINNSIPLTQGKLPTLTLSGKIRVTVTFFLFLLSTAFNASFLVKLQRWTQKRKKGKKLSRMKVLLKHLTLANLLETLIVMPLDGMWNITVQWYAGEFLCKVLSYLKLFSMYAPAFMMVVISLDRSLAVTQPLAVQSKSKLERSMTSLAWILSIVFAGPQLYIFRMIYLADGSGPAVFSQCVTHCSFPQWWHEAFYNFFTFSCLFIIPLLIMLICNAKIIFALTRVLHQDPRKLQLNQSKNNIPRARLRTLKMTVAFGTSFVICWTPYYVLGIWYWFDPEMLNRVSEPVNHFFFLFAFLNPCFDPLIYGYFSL
# Assay: LHRH rat pituitary receptor binding (pKI)
# Conditions: negative logarithm of the equilibrium dissociation constants, Table 1
# Description: Representative compounds of the present invention were evaluated in in vitro tests for LHRH rat pituitary receptor binding (pKI) and for LH inhibition from rat pituitary cells for antagonist potency (pA2). The tests employed the methods detailed in F. Haviv, et al. J. Med. Chem., 32: 2340-2344 (1989). The receptor binding affinity (pKI) is the negative logarithm of the equilibrium dissociation constants.
row,receptor binding affinity (pKI),Compound
1,8.11,"3'-N-Desmethyl-3'-N-[3-(3-pyridyl)propyl]-11-deoxy-11-[carboxy-(3,4-dichlorophenethylamino)]-6-O-methyl-erythromycin A 11,12-(cyclic carbamate) [Example 79]"
2,8.36,"CC[C@H]1OC(=O)[C@H](C)[C@@H](O[C@H]2C[C@@](C)(OC)[C@@H](O)[C@H](C)O2)[C@H](C)[C@@H](O[C@@H]2O[C@H](C)C[C@H](N(C)C3CC(C)C(C)C3)[C@H]2O)[C@](C)(OC)C[C@@H](C)C(=O)[C@H](C)[C@H]2N(CCc3ccc(Cl)c(Cl)c3)C(=O)O[C@]12C (some centres unmarked) [Example 9, 3'-N-Desmethyl-3'-N-(3,4-dimethylcyclopentyl)-11-deoxy-11-[carboxy-(3,4-dichlorophenethylamino)]-6-O-methyl-erythromycin A 11,12-(cyclic carbamate)]"

# Same assay, conditions: negative logarithm of the equilibrium dissociation constants, Table 1, read-out: receptor binding affinity (pKI) (converted)
row,Ki [nM],Compound
1,1.74,"CC[C@H]1OC(=O)[C@H](C)[C@@H](O[C@H]2C[C@@](C)(OC)[C@@H](O)[C@H](C)O2)[C@H](C)[C@@H](O[C@@H]2O[C@H](C)C[C@H](N(C)C(C)C)[C@H]2O)[C@](C)(OC)C[C@@H](C)C(=O)[C@H](C)[C@H]2N(CC3(c4ccc(Cl)c(Cl)c4)CC3)C(=O)O[C@]12C [Example 10, 3'-N-Desmethyl-3'-N-isopropyl-11-deoxy-11-[carboxy-(α,α-cyclopropyl-3,4-dichlorophenethylamino)]-6-O-methyl-erythromycin A 11,12-(cyclic carbamate)]"
2,3.09,"CC[C@H]1OC(=O)[C@H](C)[C@@H](O[C@H]2C[C@@](C)(OC)[C@@H](O)[C@H](C)O2)[C@H](C)[C@@H](O[C@@H]2O[C@H](C)C[C@H](N(C)C3CCC3)[C@H]2O)[C@](C)(OC)C[C@@H](C)C(=O)[C@H](C)[C@H]2N(CC3(c4ccc(Cl)c(Cl)c4)CC3)C(=O)O[C@]12C [Example 11, 3'-N-Desmethyl-3'-N-cyclobutyl-11-deoxy-11-[carboxy-(α,α-cyclopropyl-3,4-dichlorophenethylamino)]-6-O-methyl-erythromycin A 11,12-(cyclic carbamate)]"
3,2.09,"CC[C@H]1OC(=O)[C@H](C)[C@@H](O[C@H]2C[C@@](C)(OC)[C@@H](O)[C@H](C)O2)[C@H](C)[C@@H](O[C@@H]2O[C@H](C)C[C@H](N(C)C3CCCC3)[C@H]2O)[C@](C)(OC)C[C@@H](C)C(=O)[C@H](C)[C@H]2N(CC3(c4ccc(Cl)c(Cl)c4)CC3)C(=O)O[C@]12C [Example 12, 3'-N-Desmethyl-3'-N-cyclopentyl-11-deoxy-11-[carboxy-(α,α-cyclopropyl-3,4-dichlorophenethylamino)]-6-O-methyl-erythromycin A 11,12-(cycliccarbamate)]"
4,7.94,"CC[C@H]1OC(=O)[C@H](C)[C@@H](O[C@H]2C[C@@](C)(OC)[C@@H](O)[C@H](C)O2)[C@H](C)[C@@H](O[C@@H]2O[C@H](C)C[C@H](N(C)C3CCCCC3)[C@H]2O)[C@](C)(OC)C[C@@H](C)C(=O)[C@H](C)[C@H]2N(CC3(c4ccc(Cl)c(Cl)c4)CC3)C(=O)O[C@]12C [Example 13, 3'-N-Desmethyl-3'-N-cyclohexyl-11-deoxy-11-[carboxy-(α,α-cyclopropyl-3,4-dichlorophenethylamino)]-6-O-methyl-erythromycin A 11,12-(cyclic carbamate)]"
5,1.78,"CCCN(C)[C@H]1C[C@@H](C)O[C@@H](O[C@@H]2[C@@H](C)[C@H](O[C@H]3C[C@@](C)(OC)[C@@H](O)[C@H](C)O3)[C@@H](C)C(=O)O[C@H](CC)[C@@]3(C)OC(=O)N(CCc4ccc5c(c4)OCO5)[C@@H]3[C@@H](C)C(=O)[C@H](C)C[C@@]2(C)OC)[C@@H]1O [Example 14, 3'-N-Desmethyl-3'-N-n-propyl-11-deoxy-11-[carboxy-(3,4-dioxolanophenethylamino)]-6-O-methyl-erythromycin A 11,12-(cyclic carbamate)]"
6,6.31,"CC[C@H]1OC(=O)[C@H](C)[C@@H](O[C@H]2C[C@@](C)(OC)[C@@H](O)[C@H](C)O2)[C@H](C)[C@@H](O[C@@H]2O[C@H](C)C[C@H](N(C)C3CCCC3)[C@H]2O)[C@](C)(OC)C[C@@H](C)C(=O)[C@H](C)[C@H]2N(CCc3ccc4c(c3)OCO4)C(=O)O[C@]12C [Example 15, 3'-N-Desmethyl-3'-N-cyclopentyl-11-deoxy-11[carboxy-(3,4-dioxolanophenethylamino)]-6-O-methyl-erythromycin A 11,12-(cyclic carbamate)]"
7,4.27,"CC[C@H]1OC(=O)[C@H](C)[C@@H](O[C@H]2C[C@@](C)(OC)[C@@H](O)[C@H](C)O2)[C@H](C)[C@@H](O[C@@H]2O[C@H](C)C[C@H](N(C)C(C)C)[C@H]2O)[C@](C)(OC)C[C@@H](C)C(=O)[C@H](C)[C@H]2N(CCc3ccc(Cl)c(F)c3)C(=O)O[C@]12C [Example 17, 3'-N-Desmethyl-3'-N-isopropyl-11-deoxy-11-[carboxy-(4-chloro-3-fluorophenethylamino)]-6-O-methyl-erythromycin A 11,12-(cyclic carbamate)]"
8,5.89,"CC[C@H]1OC(=O)[C@H](C)[C@@H](O[C@H]2C[C@@](C)(OC)[C@@H](O)[C@H](C)O2)[C@H](C)[C@@H](O[C@@H]2O[C@H](C)C[C@H](N(C)C3CCCC3)[C@H]2O)[C@](C)(OC)C[C@@H](C)C(=O)[C@H](C)[C@H]2N(CCc3ccc(Cl)c(F)c3)C(=O)O[C@]12C [Example 18, 3'-N-Desmethyl-3'-N-cyclopentyl-11-deoxy-11-[carboxy-(4-chloro-3-fluorophenethylamino)]-6-O-methyl-erythromycin A 11,12-(cyclic carbamate)]"
9,1.58,"CC[C@H]1OC(=O)[C@H](C)[C@@H](O[C@H]2C[C@@](C)(OC)[C@@H](O)[C@H](C)O2)[C@H](C)[C@@H](O[C@@H]2O[C@H](C)C[C@H](N(C)CC3CCC3)[C@H]2O)[C@](C)(OC)C[C@@H](C)C(=O)[C@H](C)[C@H]2N(CCc3ccc(Cl)cc3)C(=O)O[C@]12C [Example 19, 3'-N-Desmethyl-3'-N-cyclobutylmethyl-11-deoxy-11-[carboxy-(4-chlorophenethylamino)]-6-O-methyl-erythromycin A 11,12-(cyclic carbamate)]"

# Continued, compound first:
row,Compound,Ki [nM]
1,"CC[C@H]1OC(=O)[C@H](C)[C@@H](O[C@H]2C[C@@](C)(OC)[C@@H](O)[C@H](C)O2)[C@H](C)[C@@H](O[C@@H]2O[C@H](C)C[C@H](N(C)C3CC3)[C@H]2O)[C@](C)(OC)C[C@@H](C)C(=O)[C@H](C)[C@H]2N(CCc3ccc(Cl)c(Cl)c3)C(=O)O[C@]12C [Example 2, 3'-N-Desmethyl-3'-N-cyclopropyl-11-deoxy-11-[carboxy-(3,4-dichlorophenethylamino)]-6-O-methyl-erythromycin A 11,12-(cyclic carbamate)]",0.575
2,"CC[C@H]1OC(=O)[C@H](C)[C@@H](O[C@H]2C[C@@](C)(OC)[C@@H](O)[C@H](C)O2)[C@H](C)[C@@H](O[C@@H]2O[C@H](C)C[C@H](N(C)C3CCC3)[C@H]2O)[C@](C)(OC)C[C@@H](C)C(=O)[C@H](C)[C@H]2N(CCc3ccc(Cl)c(Cl)c3)C(=O)O[C@]12C [Example 4, 3'-N-Desmethyl-3'-N-cyclobutyl-11-deoxy-11-[carboxy-(3,4-dichlorophenethylamino)]-6-O-methyl-erythromycin A 11,12-(cyclic carbamate) hydrochloride]",3.24
3,"CC[C@H]1OC(=O)[C@H](C)[C@@H](O[C@H]2C[C@@](C)(OC)[C@@H](O)[C@H](C)O2)[C@H](C)[C@@H](O[C@@H]2O[C@H](C)C[C@H](N(C)C3CCCCC3)[C@H]2O)[C@](C)(OC)C[C@@H](C)C(=O)[C@H](C)[C@H]2N(CCc3ccc(Cl)c(Cl)c3)C(=O)O[C@]12C [Example 5, 3'-N-Desmethyl-3'-N-cyclohexyl-11-deoxy-11-[carboxy-(3,4-dichlorophenethylamino)]-6-O-methyl-erythromycin A 11,12-(cyclic carbamate)]",3.63
4,CC[C@H]1OC(=O)[C@H](C)[C@@H](O[C@H]2C[C@@](C)(OC)[C@@H](O)[C@H](C)O2)[C@H](C)[C@@H](O[C@@H]2O[C@H](C)C[C@H](N(C)CCC(C)C)[C@H]2O)[C@](C)(OC)C[C@@H](C)C(=O)[C@H](C)[C@H]2N(CCc3ccc(Cl)c(Cl)c3)C(=O)O[C@]12C [Example 6],8.13
5,"CC[C@H]1OC(=O)[C@H](C)[C@@H](O[C@H]2C[C@@](C)(OC)[C@@H](O)[C@H](C)O2)[C@H](C)[C@@H](O[C@@H]2O[C@H](C)C[C@H](N(C)CCCSC)[C@H]2O)[C@](C)(OC)C[C@@H](C)C(=O)[C@H](C)[C@H]2N(CCc3ccc(Cl)c(Cl)c3)C(=O)O[C@]12C [Example 7, 3'-N-Desmethyl-3'-N-(3-methylthiopropyl)-11-deoxy-11-[carboxy-(3,4-dichlorophenethylamino)]-6-O-methyl-erythromycin A 11,12-(cyclic carbamate)]",4.68
6,"CC[C@H]1OC(=O)[C@H](C)[C@@H](O[C@H]2C[C@@](C)(OC)[C@@H](O)[C@H](C)O2)[C@H](C)[C@@H](O[C@@H]2O[C@H](C)C[C@H](N(C)C3CCSC3)[C@H]2O)[C@](C)(OC)C[C@@H](C)C(=O)[C@H](C)[C@H]2N(CCc3ccc(Cl)c(Cl)c3)C(=O)O[C@]12C (some centres unmarked) [Example 8, 3'-N-Desmethyl-3'-N-(3-tetrahydrothienyl)-11-deoxy-11-[carboxy-(3,4-dichlorophenethylamino)]-6-O-methyl-erythromycin A 11,12-(cyclic carbamate)]",7.41
